Tests used:
[1] = tested on: plasmid DNA; experiment: Gel shift assay using plasmid DNA; format: binding; settings: 1:1 molar ratio cationic lipid and DOPE, agarose gel
Protocol: Gel Shift Assays Using Plasmid DNA. Nanoparticles consisting of a 1:1 molar ratio of cationic lipid/DOPE were rehydrated in a 20 mM HEPES solution at pH 4. […] The gels were visualized and photographed using a Bio-Rad ChemiDoc XR system using the manufacturer's software.

[2] = tested on: canonical NFKB; experiment: THP-1-Blue NFKB reporter (SEAP) assay; format: cell-based, human; settings: THP-1-Blue cells stimulated with TNFα
[3] = tested on: murine macrophages; settings: incubation of murine macrophages; cited from earlier work
[4] = tested on: cIAP; settings: cited from earlier work

**Q.** With `CCCCCCCC/C=C\CCCCCCCC(=O)OC[C@@H](COP(=O)(O)OCCN)OC(=O)CCCCCCC/C=C\CCCCCCCC` (stereo in doubt) [DOPE, 1,2-dioleoyl-sn-glycero-3-phosphoethanolamine, reference compound] as the compound, how does the “N:P ratio at which nucleic acid is complexed / migration inhibited” value [1] read?
**A.** unable to prevent migration

**Q.** What about the “canonical NFKB inhibition” value [2] of the same compound?
**A.** exhibited no activity

**Q.** For `CC[C@H]1OC(=O)[C@H](C)[C@@H](O[C@H]2C[C@@](C)(OC)[C@@H](O)[C@H](C)O2)[C@H](C)[C@@H](O[C@@H]2O[C@H](C)C[C@H](N(C)C)[C@H]2O)[C@](C)(O)C[C@@H](C)CN(C)[C@H](C)[C@@H](O)[C@]1(C)O` [azithromycin], which IKKβ expression [3] is on record?
**A.** increases the overall expression of IKβ kinase (IKKB)

**Q.** For `CC[C@H](NC(=O)[C@H](C)NC)C(=O)N1C[C@@H](O)C[C@H]1Cc1c(-c2[nH]c3cc(F)ccc3c2C[C@@H]2C[C@H](O)CN2C(=O)[C@H](CC)NC(=O)[C@H](C)NC)[nH]c2cc(F)ccc12` [birinapant], which IC50 [4] is on record?
**A.** 50 nM

Source: US20250361214A1, “TRIAZINE LIPIDS, LIPID SYNTHESIS, AND METHODS FOR INHIBITING CANONICAL NFKB TRANSCRIPTIONAL ACTIVITY” (University of Kentucky Research Foundation, priority 2022, published 2025)
